≈ marks a conversion by molar mass, not a printed value.
What was measured:
Assay type in all cases: physicochemical
[1] = Dynamic vapor sorption (DVS)
Procedure: TGA and DSC measurements indicated weight loss of 0.1% at 150° C. and an endothermic peak at 120.0° C.
Dynamic Vapor Sorption (DVS) was measured with a SMS DVS Intrinsic from Surface Measurement Systems (London, United Kingdom) using the following parameters: temperature: 25° C.; sample size: 10-20 mg; gas and flow rate: N2 and 200 mL/min; dm/dt: 0.002%/min; min. dm/dt stability duration: 10 min; max. equilibrium time: 180 min; relative humidity (RH) range: 0% RH-95% RH-0% RH; RH step size: 10%.

[2] = Physical and chemical stability under stressed conditions (HPLC, XRPD); conditions: 40° C./75% RH for 1 week
Procedure: Physical and chemical stability evaluation has been performed for crystalline polymorph Form 1 under stressed conditions. In the experiments, about 10 mg of the polymorph was placed into 4 ml glass vials that were stored under 40° C./75% RH for 1 week. HPLC was utilized to evaluate the degradation, and XPRD was used to evaluate the crystalline polymorph.

[3] = Slurry conversion (competitive) experiments for thermodynamic stability relationship; conditions: for pH of solution: 2.5 mg in 1 mL of 4% dichloromethane
Procedure: To determine the thermodynamic stability relationship between Form 1 and Form 5, slurry conversion experiments were conducted. Specifically, Form 1 sample was added to 1.0 mL H2O:acetone (9:1 v:v) or 0.8 mL of H2O:ethanol (3:1 v:v) at room temperature. After equilibrium for 1 hr, the suspensions were filtered to obtain a saturated solution Form 1. To each saturated solution of Form 1:Form 5 (1:1) was added. After stirring at room temperature for 2 or 3 days, the solids were isolated for XRPD analysis.
To determine the thermodynamic stability relationship between Form 11 and Form 12, slurry conversion experiments were conducted. Specifically, Form 12 (2.5 mg) was added to 1.0 mL of 4% dichloromethane at room temperature. After equilibrium for 1 hour, the suspensions were filtered to obtain a saturated solution Form 12. To the saturated solution of Form 11:Form 12 (1:1) was added. After stirring at room temperature for 30 minutes, the solids were isolated for XRPD analysis. […] The pH of Form 11 solution (2.5 mg in 1 mL of 4% dichloromethane) and Form 12 solution (2.5 mg in 1 mL of 4% dichloromethane) was measured to be 8.25 and 7.98, respectively.

[4] = Solubility of crystalline polymorph in biologically relevant media (water, SGF, FaSSIF, FeSSIF), HPLC of supernatant, pH, XRPD of remaining solids; conditions: for solubility at 1 h / solubility at 4 h / solubility at 24 h: thermodynamic from solid, 37° C.; for pH: solubility test
Procedure: The solubility of crystalline polymorph Form 1 was tested in biologically relevant media: water, simulated gastric fluid (SGF), fasted state simulated intestinal fluid (FaSSIF) and fed state simulated intestinal fluid (FeSSIF). For example, the crystalline polymorph was suspended in the solvent with stirring at 400 rpm at 37° C. for 1 h, 4 h and 24 h followed by filtration. The supernatant concentration was measured by HPLC (Mobile phase A: 0.1% NH3 in H2O, Mobile phase B: acetonitrile; flow rate: 0.8 mL/min; injection volume: 5 μL). The remaining solids were tested by XRPD.
The solubility of crystalline polymorph Form 11 was tested in biologically relevant media: water, SGF, FaSSIF, and FeSSIF. For example, the crystalline polymorph was suspended in the solvent with stirring at 400 rpm at 37° C. for 1 h, 4 h and 24 h followed by filtration. The supernatant was measured by HPLC for concentration and the remaining solids were tested by XRPD.

[5] = Form stability on drying, checked by XRPD; conditions: wet solids vacuum-dried at 50° C. for 2 hours
Procedure: Crystalline polymorph Form 1 (20 mg) was suspended in 0.2-0.9 mL of methyl tert-butyl ether (MTBE). The resulting slurry was stirred at room temperature for 4 days, after which the remaining solids were isolated and subjected to XRPD.
Crystalline polymorph Form 1 (20 mg) was suspended in 0.2-0.9 mL of tetrahydrofurane:H2O (1:9 v:v). The resulting slurry was stirred at room temperature for 4 days, after which the remaining solids were isolated and subjected to XRPD.
A solution of crystalline polymorph Form 1 (20 mg in 0.3 mL) was mixed with 0.3 mL a solution of KOH in ethyl acetate (1:1 molar ratio of KOH:Form 1), and then stirred for 2 to 5 days at room temperature. The solids were isolated and subjected to XRPD. The wet solids were also vacuum-dried at 50° C. for 2 hours, and then subjected to XRPD. […] This crystalline polymorph was also characterized by TGA, DSC, and PLM. […] Based on the results, Form 9 was considered to be a hydrate or a solvate.
X-Ray Powder Diffraction was obtained by standard techniques using Panalytical X'Pert3 Powder XRPD on a Si zero-background holder operating with a Cu Kα radiation source at 45 kV, 40 mA (Kα1 (Å): 1.540598, Kα2 (Å): 1.544426, Kα2/Kα1 intensity ratio: 0.50). The 2θ position was calibrated against Panalytical Si reference standard disc. The scanning parameters ranged from 3 to 40° 2θ (±0.0131°) and a continuous scan at a rate of about 0.04° 2θ/minute.

[6] = after solubility test in FaSSIF
[7] = after solubility test in FeSSIF
[8] = fasted state simulated intestinal fluid (FaSSIF), FaSSIF, 1 hr
[9] = fasted state simulated intestinal fluid (FaSSIF), FaSSIF, 4 hr
[10] = fasted state simulated intestinal fluid (FaSSIF), FaSSIF, 24 hr
[11] = fed state simulated intestinal fluid (FeSSIF), FeSSIF, 1 hr
[12] = fed state simulated intestinal fluid (FeSSIF), FeSSIF, 4 hr
[13] = fed state simulated intestinal fluid (FeSSIF), FeSSIF, 24 hr
[14] = simulated gastric fluid (SGF), simulated gastric fluid, SGF, 1 hr
[15] = simulated gastric fluid (SGF), simulated gastric fluid, SGF, 4 hr
[16] = simulated gastric fluid (SGF), simulated gastric fluid, SGF, 24 hr

Row | Structure (SMILES) | Form change by XRPD of remaining solids [4, 6] | Form change by XRPD of remaining solids [4, 7] | Form change by XRPD of remaining solids ([4]; after solubility test in SGF) | Form change by XRPD of remaining solids ([4]; after solubility test in water) | solubility at 1 h [4, 8] [µg/mL] | solubility at 4 h [4, 9] [µg/mL] | solubility at 24 h [4, 10] [µg/mL] | solubility at 1 h [4, 11] [µg/mL] | solubility at 4 h [4, 12] [µg/mL] | solubility at 24 h [4, 13] [µg/mL] | solubility at 1 h [4, 14] [µg/mL] | solubility at 4 h [4, 15] [µg/mL] | solubility at 24 h [4, 16] [µg/mL] | pH ([4]; FaSSIF, 1 hr) | pH ([4]; FaSSIF, 4 hr) | pH ([4]; FaSSIF, 24 hr) | pH ([4]; FeSSIF, 1 hr) | pH ([4]; FeSSIF, 4 hr) | pH ([4]; FeSSIF, 24 hr) | pH ([4]; H2O, 1 hr) | other results
1 | Cc1nn(-c2nc(C3=CCC(C(F)(F)F)CC3)c(SC(C)C)s2)c(C(=O)O)c1-c1cccc(F)c1 (stereo not drawn) [Form 1, 4-(3-fluorophenyl)-1-(5-(isopropylthio)-4-(4-(trifluoromethyl)cyclohex-1-en-1-yl)thiazol-2-yl)-3-methyl-1H-pyrazole-5-carboxylic acid] | one unknown peak was observed at about 31 2θ degrees | no form change was observed | no form change was observed | no form change was observed | 140 (≈ 266 µM) | 220 (≈ 419 µM) | 200 (≈ 381 µM) | 170 (≈ 323 µM) | 180 (≈ 342 µM) | 140 (≈ 266 µM) | 50 (≈ 95.1 µM) | 30 (≈ 57.1 µM) | 30 (≈ 57.1 µM) | 6.55 | 5.75 | 5.12 | 5.07 | 5.06 | 4.94 | 7.00 | water uptake (DVS) ([1]; 25° C./80% relative humidity): 0.6%; form change before and after DVS ([1]; XRPD, FIG. 1E): no form change was observed; hygroscopicity ([1]; from DVS at 25° C./80% relative humidity): slightly hygroscopic; physical and chemical stability [2]: physically stable; thermodynamic stability relationship between Form 1 and Form 5 ([3]; slurry of Form 1:Form 5 (1:1) in H2O:acetone (9:1) or H2O:ethanol (3:1), room temperature, 2 or 3 days): more thermodynamically stable than Form 5; pH ([4]; H2O, 4 hr): 7.82; pH ([4]; H2O, 24 hr): 6.68; pH ([4]; SGF, 1 hr): 1.93; pH ([4]; SGF, 4 hr): 1.75; pH ([4]; SGF, 24 hr): 1.83; solubility at 1 h ([4]; water, H2O, 1 hr): 490 µg/mL (≈ 932 µM); solubility at 4 h ([4]; water, H2O, 4 hr): 1300 µg/mL (≈ 2470 µM); solubility at 24 h ([4]; water, H2O, 24 hr): 1700 µg/mL (≈ 3230 µM)
2 | Cc1nn(-c2nc(C3=CCC(C(F)(F)F)CC3)c(SC(C)C)s2)c(C(=O)[O-])c1-c1cccc(F)c1.[Na+] (stereo not drawn) [Form 11, sodium 4-(3-fluorophenyl)-1-(5-(isopropylthio)-4-(4-(trifluoromethyl)cyclohex-1-en-1-yl)thiazol-2-yl)-3-methyl-1H-pyrazole-5-carboxylate] | no form change was observed | converted to Form 1 | converted to Form 1 | no form change was observed | 100 | 100 | 200 | 200 | 300 | 400 | 40 | 100 | 300 | 6.48 | 6.45 | 6.56 | 5.19 | 5.28 | 5.32 | 9.67 | change to the polymorph during drying (XRPD) [5]: no change to the polymorph was observed; pH of solution [3]: 8.25; thermodynamic stability relationship between Form 11 and Form 12 ([3]; slurry of Form 11:Form 12 (1:1) in 4% dichloromethane, room temperature, 30 minutes): more thermodynamically stable than Form 12; pH ([4]; H2O, 4 hr): 9.31; pH ([4]; H2O, 24 hr): 9.17; pH ([4]; SGF, 1 hr): 2.12; pH ([4]; SGF, 4 hr): 2.55; pH ([4]; SGF, 24 hr): 6.81; solubility at 1 h ([4]; water, H2O, 1 hr): 1400 µg/mL; solubility at 4 h ([4]; water, H2O, 4 hr): 1300 µg/mL; solubility at 24 h ([4]; water, H2O, 24 hr): 1200 µg/mL
3 | Cc1nn(-c2nc(C3=CCC(C(F)(F)F)CC3)c(SC(C)C)s2)c(C(=O)[O-])c1-c1cccc(F)c1.[Na+] (stereo not drawn) [Form 12, sodium 4-(3-fluorophenyl)-1-(5-(isopropylthio)-4-(4-(trifluoromethyl)cyclohex-1-en-1-yl)thiazol-2-yl)-3-methyl-1H-pyrazole-5-carboxylate] | – | – | – | – | – | – | – | – | – | – | – | – | – | – | – | – | – | – | – | – | change to the polymorph during drying (XRPD) [5]: no change to the polymorph was observed; pH of solution [3]: 7.98

— patent publication US12378234B2, “Crystalline polymorphs of a 1-thiazol-2-yl-pyrazole-5-carboxylic acid derivative” (Bantam Pharmaceutical, LLC, priority 2019, dated 2025)
